Measurements reported in patent publication US9232797B2, “Pesticidal composition and its use” (SUMITOMO CHEMICAL COMPANY, LIMITED, priority 2010, dated 2016).

Test system: Rhizoctonia solani
Assay: Soybean seed treatment test in soil contaminated by Rhizoctonia solani (disease control efficacy)
Assay type: in vivo, Rhizoctonia solani on soybean (variety: Natto shoryu)
Conditions: seed treatment with carboxamide compound alone 0.2 g/100 kg of seeds; soybean cultivated 20 days in contaminated soil; versus non-treated plot
Description: A cyclohexanone solution (100 microL) containing prescribed amount (weight) of a test compound was applied on seeds of soybean (variety: Natto shoryu) (10 g) by using a rotary apparatus for seed treatment (Seed dresser, manufactured by Hans-Ulrich Hege GmbH).
One day after the treatment, plastic pot was filled with soil contaminated by Rhizoctonia solani, and the seeds treated with the test compounds were seeded in the soil and cultivated in a glass-greenhouse for 20 days (hereinafter referred to as “treated plot”).
Thereafter, the presence of disease caused by Rhizoctonia solani in the young plants which germinated from each seed was observed and disease severity was calculated according to the following calculation formula (1).
On the other hand, seeds of soybean which were not treated as above were cultivated in the same way as above (hereinafter referred to as “non-treated plot”) and the disease severity in “non-treated plot” was calculated in the same way as above “treated plot”. On the basis of the above disease severity in “treated plot” and “non-treated plot”, efficacy in “treated plot” was evaluated according to the following calculation formula (2). […]

`CC1CC(C)(C)c2cccc(NC(=O)c3cn(C)nc3C(F)F)c21` (stereo not shown) [carboxamide compound (I)] was tested, and the “efficacy (%)” value was 42.1%.
